US10725042B2, “Methods of diagnosing and treating cancer” (Case Western Reserve University, priority 2012, dated 2020)

Columns and labels:
DLD1/UDG−/− cells = assay: Cell cycle analysis, UDG−/− cells; format: cell-based, human; settings: pemetrexed 25 nM
Experimental: For cell cycle analysis, 10^6 cells (DLD1/UDG^+/+ and DLD1/UDG^−/−) were plated in 100-mm tissue culture dishes and exposed to pemetrexed (25 nM). After 6, 24 and 72 h of culture, cells were fixed with 80% methanol and washed with ice-cold 1% BSA/PBS. DNA was stained with 20 μg/mL propidium iodide (Sigma-Aldrich) and 2.5 μg/mL of DNase-free RNase A (Roche). The DNA fluorescence of propidium iodide-stained cells was measured with an Elite ESP flow cytometer/cell sorter (Coulter, Miami, Fla.).

UDG−/− cells = assay: Replication foci stained with CldU and IdU, UDG−/− cells; format: cell-based, human; settings: pemetrexed 25 nM, n=10 cells
Experimental: DNA replication sites were visualized by incorporation of chlorodeoxyuridine (CldU) and iododeoxyuridine (IdU) into DNA. UDG^−/− and UDG^+/+ cells were labeled with 100 μM CldU (ICN, Irvine, Calif.) or IdU (Sigma Chemical Co., St. Louis, Mo.) for 45 min at different time intervals. Cells were washed with PBS, fixed with cold 70% ethanol, and stored at 4° C. For antibody staining, the ethanol was removed, and 100% methanol was added for 5 min. Cells were washed twice with PBS and incubated with 1.5 M HCl for 30 min to denature the DNA. Cells were washed with PBS, permeabilized with 0.5% Tween 20 in PBS for 5 min, and then incubated in 5% BSA (Sigma Chemical Co.) and in PBS for 20 min to reduce nonspecific binding. Primary antibodies CldU (rat anti-BrdU; Accurate Chemical and Science Co., Westbury, N.Y.) and IdU (mouse anti-BrdU; BD Biosciences) were diluted in 1% BSA buffer, added to the slides, and incubated in a humid environment for 2 hrs. Slides were washed with PBS-Tween 20 and then in a high-salt buffer (200 mM NaCl, 0.2% Tween 20, and 0.2% NP-40 in PBS) for 15 min. The samples were incubated with secondary antibodies for 1 h. Finally, slides were washed with PBSTween 20, mounted with Vectashield antifade mounting medium (Vector Laboratories, Inc., Burlingame, Calif.), and stored at 4° C. […] Fluorescence density of CldU or IdU was quantified by NIH image J software.

H460 xenografts = assay: H460 xenograft tumors in nude mice; format: in vivo; settings: pemetrexed 150 mg/kg, MX 4 mg/kg, i.p. daily for 5 days
Experimental: (§1) H460 or A549 tumor cells (5×10^6) were injected into bilateral flanks of female athymic NCr (nu/nu) mice (6 weeks old). When the tumor volumes reached 100-150 mm3, mice were divided into control and treatment groups (6-9 mice/group). Nude mice carrying tumors were treated with pemetrexed (150 mg/kg) alone, MX (4 mg/kg) alone or the combination of the two agents, by daily intraperitonial injection (i.p.) for 5 consecutive days. Tumor measurements were taken every 2 days. Tumor responses were quantified by tumor volume.

[1] = system: A549 lung cancer xenografts; assay: A549 xenograft tumors in nude mice; format: in vivo; settings: A549 tumours; pemetrexed 150 mg/kg, MX 4 mg/kg, i.p. daily for 5 days
Experimental: as §1

A549 siUNG cells = assay: Colony survival assay, A549 siUNG cells; format: cell-based, human
Experimental: For cells in suspension, colony survival was determined by crystal violet staining of colonies formed after 10-day exposure of 5×10^3 cells to pemetrexed in soft agar. For adherent cells, colony survival was determined by methylene blue staining of colonies formed after 10-day exposure of 100 cells to pemetrexed in 6-well culture dishes. Only colonies containing ≥50 cells were counted. Data points represent percent of colonies relative to untreated control averaged over 3 experiments.
UNG directed shRNA and siRNA plasmids were purchased from Origene. Transfection was carried out according to manufacturer specifications. Stably transfected clones (shRNA) were selected with puromycin with subsequent expansion of a well-isolated colony of cells.

H1975 shUNG cells = assay: PCNA dissociation by bi-parametric flow cytometry, H1975 shUNG cells; format: cell-based, human; settings: 25 nM pemetrexed
Experimental: Propidium iodine (PI) staining of methanol fixed cells was for cell cycle determinations. Where indicated, FITC labeled PCNA antibody (PCNA-FITC, Abcam) was added for PCNA detection. Uni-parameter (PI-only) and dual-parameter (PI+PCNA-FITC) analysis was performed on a Coulter flow cytometer (EPICS-XL-MCL). Cell cycle histograms (PI) and PCNA dot plots (PCNA-FITC) were de-convoluted from ≥20,000 events using FlowJo software.
Prolonged S-phase arrest is known to result in DNA DSB formation due to the collapse of stalled replication forks. We evaluated the stability of the DNA replication fork in pemetrexed treated lung cancer cells with native and reduced levels of UNG protein. Nucleotide incorporation experiments using CldU and IdU indicate decreased postpemetrexed treatment nucleotide incorporation (data not shown). […] Using bi-parametric flow cytometry we measured the dissociation of the replication fork processivity factor, PCNA at the single cell level in H1975 cells expressing UNG directed shRNA. Similar assays have been utilized to detect replication fork disassembly following etoposide and hydroxyurea exposure. PCNA dissociation was determined by the percentage of cells in S phase having low PCNA (red box, FIG. 11d). […] As a complimentary experiment, we examined the expression of chromatin-bound PCNA after pemetrexed treatment by western blot of chromatin cellular extracts.

[2] = system: uracil in DNA of UDG+/+ cells; assay: Uracil in DNA by HPLC/MS/MS, UDG+/+ cells; format: cell-based, human; settings: pemetrexed 10 μM, 6-72 hr
Experimental: UDG^−/− and UDG^+/+ cells were exposed to pemetrexed (10 μM) or 5-fluorouracil (10 μM) for 6, 24, 48 and 72 hrs. At indicated time points, cells were harvested and genomic DNA was extracted by phenol/chloroform. Forty μg of DNA were incubated with 10 U of purified UDG (New England Biolabs) in 60 μL of reaction buffer at 37° C. for 2 hrs. The reaction products were dried at 35° C. in a Turbovap under a stream of nitrogen and reconstituted in 150 μL 90% acetonitrile. The analyte was retained by an Atlantis Hilis Silica analytical column (2.1×100 mm, 3.5 μM) and eluted isocratically by a mixture of 90% acetonitrile and 10% 2.0 mM ammonium formate at a flow rate of 0.2 ml/min. The detection was done by an API 3200 MS/MS mass spectrometer.

With Nc1nc2[nH]cc(CCc3ccc(C(=O)N[C@@H](CCC(=O)O)C(=O)O)cc3)c2c(=O)[nH]1 [pemetrexed] the “cells arrested in S-phase” value (DLD1/UDG−/− cells; 6 hr) was about 25%, the “cells arrested in S-phase” value (DLD1/UDG−/− cells; 24 hr) was 36% and the “cells in S-phase” value (DLD1/UDG−/− cells; 72 hr) was 35%. The “cells undergone apoptosis (subG1)” value (DLD1/UDG−/− cells; 72 hr) was about 22%, the “ratio of IdU to CldU (fluorescence density)” value (UDG−/− cells; 6-hr sample) was 0.1±0.04 and the “ratio of IdU to CldU (fluorescence density)” value (UDG−/− cells; 18-hr sample) was 0.01±0.005. The antitumour activity (H460 xenografts; H460 tumours) was “moderately sensitive”, the mean tumour volume (H460 xenografts; H460 xenografts at 15 days, PBS control 2100±106) was 1726±176 mm3 and the antitumour activity [1] was “moderately sensitive”. The “sensitivity of A549 siRNA cells compared to parental cells” value (A549 siUNG cells; A549 siUNG vs parental) was 7 fold, the IC50 (A549 siUNG cells; Homo sapiens, A549 siUNG, colony survival, read-out: pemetrexed IC50) was 60.5 nM and the “cells in S phase having low PCNA” value (H1975 shUNG cells; 6 hours) was 3.88±0.93%. The “cells in S phase having low PCNA” value (H1975 shUNG cells; 24 hours) was 7.81±1.19% and the “uracil detected in DNA” value [2] was “very low”.
